Structures can show the parent of a compound that is named as a salt. Where two headings read alike, the source gives them in different places.
Legend:
[1] = target: CMV-polymerase (Human cytomegalovirus (strain AD169) (HHV-5) (Human herpesvirus 5), UniProt P08546); assay: biochemical
[2] = system: CMV; assay: microbe, parasite or virus in culture; type: cell-based; conditions: Human betaherpesvirus 5, 72 h, read-out: CMV-Luc Cellular EC50, NN-NHDF cells, MOI 1, 72 hrs
[3] = read-out: CMV-polymerase Biochemical IC50
[4] = CMV-polymerase Biochemical IC50

SMILES | IC50 [1, 3] | EC50 [2] | IC50 [1, 4]
Cn1nc(C(=O)NCc2ccc(C#N)cc2)c2c1C(=O)N(CC1(S(=O)(=O)NC3CCNCC3)CC1)CC2 [Example 137, N-(4-Cyanobenzyl)-1-methyl-7-oxo-6-((1-(N-(piperidin-4-yl)sulfamoyl)cyclopropyl)methyl)-4,5,6,7-tetrahydro-1H-pyrazolo[3,4-c]pyridine-3-carboxamide] | 0.044 µM | 0.636 µM | 
Cn1nc(C(=O)NCc2ccc(C#N)cc2)c2c1C(=O)N(CC1(S(C)(=O)=O)CC1)CC2 [Example 21, N-(4-Cyanobenzyl)-1-methyl-6-((1-(methylsulfonyl)cyclopropyl)methyl)-7-oxo-4,5,6,7-tetrahydro-1 H-pyrazolo[3,4-c]pyridine-3-carboxamide] | 0.009 µM | 0.147 µM | 
Cn1nc(-c2noc(Cc3ccc(C#N)cc3)n2)c2c1C(=O)N(CC1(S(=O)(=O)C3CC3)CC1)CC2 [Example 28, 4-((3-(6-((1-(Cyclopropylsulfonyl)cyclopropyl)methyl)-1-methyl-7-oxo-4,5,6,7-tetrahydro-1H-pyrazolo[3,4-c]pyridin-3-yl)-1,2,4-oxadiazol-5-yl)methyl)benzonitrile] |  | 0.024 µM | 0.001 µM
Cn1nc(C(=O)NCc2ccc(C#N)cc2)c2c1C(=O)N(CC1(S(=O)(=O)[C@H]3C[C@@H](O)C3)CC1)CC2 [Example 119, N-(4-Cyanobenzyl)-6-((1-(((1s,3s)-3-hydroxycyclobutyl)sulfonyl)cyclopropyl)methyl)-1-methyl-7-oxo-4,5,6,7-tetrahydro-1H-pyrazolo[3,4-c]pyridine-3-carboxamide] |  | 0.156 µM | 0.004 µM
Cn1nc(C(=O)NCc2ccc(C#N)cc2)c2c1C(=O)N(CC1(S(=O)(=O)C(C)(C)CN3CC4CC(C3)O4)CC1)CC2 [Example 63, 6-((1-((1-(6-Oxa-3-azabicyclo[3.1.1]heptan-3-yl)-2-methylpropan-2-yl)sulfonyl)cyclopropyl)methyl)-N-(4-cyanobenzyl)-1-methyl-7-oxo-4,5,6,7-tetrahydro-1H-pyrazolo[3,4-c]pyridine-3-carboxamide] | 0.006 µM | 0.22 µM | 
Cn1nc(C(=O)NCc2ccc(C#N)cc2)c2c1C(=O)N(CC1(S(=O)(=O)Nc3ccccn3)CC1)CC2 [Example 155, N-(4-cyanobenzyl)-1-methyl-7-oxo-6-((1-(N-(pyridin-2-yl)sulfamoyl)cyclopropyl)methyl)-4,5,6,7-tetrahydro-1H-pyrazolo[3,4-c]pyridine-3-carboxamide] |  | 0.057 µM | 0.002 µM
Cn1nc(C(=O)NOc2ccc(Cl)cc2)c2c1C(=O)N(CC1(S(=O)(=O)C3(C)CC3)CC1)CC2 [Example 37, N-(4-Chlorophenoxy)-1-methyl-6-((1-((1-methylcyclopropyl)sulfonyl)cyclopropyl)methyl)-7-oxo-4,5,6,7-tetrahydro-1H-pyrazolo[3,4-c]pyridine-3-carboxamide] | 0.007 µM | 0.105 µM | 
Cn1nc(C(=O)NCc2ccc(C#N)cc2)c2c1C(=O)N(CC1(S(=O)(=O)C(C)(C)COC(F)F)CC1)CC2 [Example 58, N-(4-Cyanobenzyl)-6-((1-((1-(difluoromethoxy)-2-methylpropan-2-yl)sulfonyl)cyclopropyl)methyl)-1-methyl-7-oxo-4,5,6,7-tetrahydro-1H-pyrazolo[3,4-c]pyridine-3-carboxamide] | 0.001 µM | 0.025 µM | 
Cn1nc(-c2nnnn2Cc2ccc(C#N)cc2)c2c1C(=O)N(CC1(S(=O)(=O)C3CC3)CC1)CC2 [Example 30, 4-((5-(6-((1-(cyclopropylsulfonyl)cyclopropyl)methyl)-1-methyl-7-oxo-4,5,6,7-tetrahydro-1H-pyrazolo[3,4-c]pyridin-3-yl)-1H-tetrazol-1-yl)methyl)benzonitrile] | 0.94 µM | > 10 µM | 
Cn1nc(C(=O)NCc2ccc(Cl)cc2)c2c1C(=O)N(CC1(S(=O)(=O)C(C)(C)[C@H](N)CO)CC1)CC2 [Example 214, (R)-6-((1-((3-Amino-4-hydroxy-2-methylbutan-2-yl)sulfonyl)cyclopropyl)methyl)-N-(4-chlorobenzyl)-1-methyl-7-oxo-4,5,6,7-tetrahydro-1H-pyrazolo[3,4-c]pyridine-3-carboxamide hydrochloride] | 0.003 µM | 0.042 µM | 
Cn1nc(C(=O)NCc2ccc(C#N)cc2)c2c1C(=O)N(CC1(S(=O)(=O)C(C)(C)CN3CC(O)C3)CC1)CC2 [Example 65, N-(4-Cyanobenzyl)-6-((1-((1-(3-hydroxyazetidin-1-yl)-2-methylpropan-2-yl)sulfonyl)cyclopropyl)methyl)-1-methyl-7-oxo-4,5,6,7-tetrahydro-1H-pyrazolo[3,4-c]pyridine-3-carboxamide] | 0.002 µM | 0.05 µM | 
Cn1nc(C(=O)NCc2ccc(C#N)cc2)c2c1C(=O)N(CC1(S(=O)(=O)C(C)(C)CN)CC1)CC2 [Example 70, 6-((1-((1-Amino-2-methylpropan-2-yl)sulfonyl)cyclopropyl)methyl)-N-(4-cyanobenzyl)-1-methyl-7-oxo-4,5,6,7-tetrahydro-1H-pyrazolo[3,4-c]pyridine-3-carboxamide] |  | 0.061 µM | 0.003 µM
Cn1nc(C(=O)NCc2ccc(C#N)c(F)c2)c2c1C(=O)N(CC1(S(C)(=O)=O)CC1)CC2 [Example 23, N-(4-Cyano-3-fluorobenzyl)-1-methyl-6-((1-(methylsulfonyl)cyclopropyl)methyl)-7-oxo-4,5,6,7-tetrahydro-1H-pyrazolo[3,4-c]pyridine-3-carboxamide] | 0.007 µM | 0.086 µM | 
Cn1nc(C(=O)NCc2ccc(C#N)cc2)c2c1C(=O)N(CC1(S(=O)(=O)N3C[C@@H](N)[C@H](O)C3)CC1)CC2 [Example 139, 6-((1-(((3R,4R)-3-Amino-4-hydroxypyrrolidin-1-yl)sulfonyl)cyclopropyl)methyl)-N-(4-cyanobenzyl)-1-methyl-7-oxo-4,5,6,7-tetrahydro-1H-pyrazolo[3,4-c]pyridine-3-carboxamide] | 0.008 µM | 0.533 µM | 
CS(=O)(=O)C1(CN2CCc3c(nn4c3C(=O)N(Cc3ccc(C#N)cc3)CC4)C2=O)CC1 [Example 46, 4-((8-((1-(Methylsulfonyl)cyclopropyl)methyl)-1,7-dioxo-3,4,7,8,9,10-hexahydropyrido[3′,4′:3,4]pyrazolo[1,5-a]pyrazin-2(1H)-yl)methyl)benzonitrile] |  | 0.746 µM | 0.041 µM
Cn1nc(C(=O)NCc2ccc(C#N)cc2)c2c1C(=O)N(CC1(S(=O)(=O)NCCO)CC1)CC2 [Example 145, N-(4-Cyanobenzyl)-6-((1-(N-(2-hydroxyethyl)sulfamoyl)cyclopropyl)methyl)-1-methyl-7-oxo-4,5,6,7-tetrahydro-1H-pyrazolo[3,4-c]pyridine-3-carboxamide] | 0.014 µM | 0.303 µM | 
Cn1nc(-c2cn(CC3CCC(F)(F)CC3)nn2)c2c1C(=O)N(CC1(S(=O)(=O)C3CC3)CC1)CC2 [Example 36, 6-((1-(Cyclopropylsulfonyl)cyclopropyl)methyl)-3-(1-((4,4-difluorocyclohexyl)methyl)-1H-1,2,3-triazol-4-yl)-1-methyl-5,6-dihydro-1H-pyrazolo[3,4-c]pyridin-7(4H)-one] | 0.005 µM | 0.571 µM | 
Cn1nc(C(=O)NCc2ccc(C#N)cc2)c2c1C(=O)N(CC1(S(=O)(=O)N3CCC(O)CC3)CC1)CC2 [Example 125, N-(4-Cyanobenzyl)-6-((1-((4-hydroxypiperidin-1-yl)sulfonyl)cyclopropyl)methyl)-1-methyl-7-oxo-4,5,6,7-tetrahydro-1H-pyrazolo[3,4-c]pyridine-3-carboxamide] | 0.003 µM | 0.196 µM | 
C[C@@H](NC(=O)c1nn(C)c2c1CCN(CC1(S(=O)(=O)C(C)(C)CO)CC1)C2=O)c1ccc(C#N)cc1 [Example 55, (R)-N-(1-(4-Cyanophenyl)ethyl)-6-((1-((1-hydroxy-2-methylpropan-2-yl)sulfonyl)cyclopropyl)methyl)-1-methyl-7-oxo-4,5,6,7-tetrahydro-1H-pyrazolo[3,4-c]pyridine-3-carboxamide] | 0.601 µM | > 10 µM | 
Cn1nc(-c2nnn(Cc3ccc(C#N)cc3)n2)c2c1C(=O)N(CC1(S(=O)(=O)C3CC3)CC1)CC2 [Example 29, 4-((5-(6-((1-(Cyclopropylsulfonyl)cyclopropyl)methyl)-1-methyl-7-oxo-4,5,6,7-tetrahydro-1H-pyrazolo[3,4-c]pyridin-3-yl)-2H-tetrazol-2-yl)methyl)benzonitrile] | 0.001 µM | 0.08 µM | 
Cn1nc(-c2cn(Cc3ccc(C#N)cc3)nn2)c2c1C(=O)N(CC1(S(=O)(=O)C3CC3)CC1)CC2 [Example 35, 4-((4-(6-((1-(Cyclopropylsulfonyl)cyclopropyl)methyl)-1-methyl-7-oxo-4,5,6,7-tetrahydro-1H-pyrazolo[3,4-c]pyridin-3-yl)-1H-1,2,3-triazol-1-yl)methyl)benzonitrile] |  | 0.038 µM | 0.003 µM
CC1(S(=O)(=O)C2(CN3CCc4c(C(=O)NCc5ccc(Cl)cc5)nn(CCOCCN)c4C3=O)CC2)CC1 [Example 223, 1-(2-(2-Aminoethoxy)ethyl)-N-(4-chlorobenzyl)-6-((1-((1-methylcyclopropyl)sulfonyl)cyclopropyl)methyl)-7-oxo-4,5,6,7-tetrahydro-1H-pyrazolo[3,4-c]pyridine-3-carboxamide] |  | 0.049 µM | 0.005 µM
Cn1nc(C(=O)NCc2ccc(C#N)cc2)c2c1C(=O)N(CC1(S(=O)(=O)C(C)(C)CN3CCC(O)C3)CC1)CC2 (stereo not drawn) [Example 68, N-(4-Cyanobenzyl)-6-((1-((1-(3-hydroxypyrrolidin-1-yl)-2-methylpropan-2-yl)sulfonyl)cyclopropyl)methyl)-1-methyl-7-oxo-4,5,6,7-tetrahydro-1H-pyrazolo[3,4-c]pyridine-3-carboxamide] | 0.001 µM | 0.115 µM | 
CC(C)(O)Cn1nc(C(=O)NCc2ccc(C#N)cc2)c2c1C(=O)N(CC1(S(C)(=O)=O)CC1)CC2 [Example 232, N-(4-Cyanobenzyl)-1-(2-hydroxy-2-methylpropyl)-6-((1-(methylsulfonyl)cyclopropyl)methyl)-7-oxo-4,5,6,7-tetrahydro-1H-pyrazolo[3,4-c]pyridine-3-carboxamide] | 0.006 µM | 0.16 µM | 

From patent US12338220B2, “Antiviral pyrazolopiridinone compounds” (Novartis AG, priority 2019, dated 2025)
